Reference: ChEMBL document CHEMBL4396891, “Recent update on anti-dengue drug discovery” (Eur J Med Chem, 2019)
In brackets after ≈: the same amount, converted by molar mass.

Tests used:
dengue virus type 2 [1] = assay: Antiviral activity against DENV2 New Guinea C infected in human Huh7 cells assessed as reduction in viral titer after 3 to 4 days by MTT assay; assay type: functional, organism-based; settings: Huh-7
dengue virus type 2 [2] = assay: Antiviral activity against DENV2 infected in human Huh-7 cells; assay type: functional, organism-based
dengue virus type 2 [3] = assay: Antiviral activity against DENV2; assay type: functional, organism-based
dengue virus type 2 [4] = assay: Antiviral activity against DENV2 infected in human Huh7 cells by qRT-PCR analysis; assay type: functional, organism-based; settings: Huh-7
dengue virus type 2 [5] = assay: Antiviral activity against DENV2 infected in HEK293 cells assessed as reduction in plaque formation; assay type: functional, organism-based
dengue virus type 2 [6] = assay: Antiviral activity against DENV2 infected in BHK-21 cells by MTTR assay; assay type: functional, organism-based
[7] = Inhibition of DENV2 N7-methyltransferase using G*pppA-RNA as substrate; parameters: species or system dengue virus type 2
Nonstructural protein 5 [8] = molecular target: T1, Nonstructural protein 5 (Dengue virus, UniProt V5TFZ2); assay: Inhibition of DENV2 2'-O-methyltransferase using m7G*pppA-RNA as substrate; parameters: species or system dengue virus type 2
[9] = Inhibition of DENV3 N7-methyltransferase using G*pppA-RNA as substrate; parameters: species or system dengue virus type 3
Nonstructural protein 5 [10] = molecular target: T1, Nonstructural protein 5; assay: Inhibition of DENV3 2'-O-methyltransferase using m7G*pppA-RNA as substrate; parameters: species or system dengue virus type 3
Dengue virus = assay: Antiviral activity against dengue virus; assay type: functional, organism-based
dengue virus type 2 [11] = assay: Antiviral activity against DENV2 infected in BHK-21 cells assessed as viral titer by plaque assay; assay type: functional, organism-based
Genome polyprotein [12] = molecular target: T2, Genome polyprotein (dengue virus type 2, UniProt P29990); assay: Inhibition of His-tagged DENV2 NS2B-NS3 serine protease expressed in Escherichia coli BL21 using Boc-Gly-Arg-Arg-7-amino-4-methylcoumarin as substrate measured after 10 mins by fluorometric assay
dengue virus type 1 [13] = assay: Antiviral activity against DENV1 infected in African green monkey Vero cells assessed as reduction in viral replication after 4 days by qRT-PCR analysis; assay type: functional, organism-based; settings: 96 h
Genome polyprotein [14] = molecular target: T2, Genome polyprotein; assay: Inhibition of DENV2 NS2B-NS3 serine protease using Bz-Nle-Lys-Arg-Arg-AMC as substrate after 15 mins by fluorescence assay
dengue virus type 2 [15] = assay: Antiviral activity against DENV2 infected in BHK cells assessed as reduction in viral yield after 24 ro 48 hrs by luciferase reporter gene assay; assay type: functional, organism-based
[16] = molecular target: Genome polyprotein (dengue virus type 2) (UniProt P29990); assay: Inhibition of DENV2 NS2B-NS3 serine protease
dengue virus type 4 [17] = assay: Antiviral activity against DENV4 Dakar infected in African green monkey Vero E6 cells after 3 to 4 days by RT-PCR analysis; assay type: functional, organism-based; settings: Vero C1008
dengue virus type 3 [18] = assay: Antiviral activity against DENV3 Bolivia infected in African green monkey Vero E6 cells after 3 to 4 days by RT-PCR analysis; assay type: functional, organism-based; settings: Vero C1008
Nonstructural protein 5 [19] = molecular target: T1, Nonstructural protein 5; assay: Inhibition of N-terminal His6-tagged DENV3 NS5 RNA dependent RNA polymerase (272 to 900 residues) after 1 hr by fluorescence assay; parameters: species or system dengue virus type 3
dengue virus type 1 [20] = assay: Antiviral activity against DENV1 Djibouti infected in African green monkey Vero E6 cells after 3 to 4 days by RT-PCR analysis; assay type: functional, organism-based; settings: Vero C1008
dengue virus type 2 [21] = assay: Antiviral activity against DENV2 Martinique infected in African green monkey Vero E6 cells after 3 to 4 days by RT-PCR analysis; assay type: functional, organism-based; settings: Vero C1008
dengue virus type 1 [22] = assay: Antiviral activity against DENV1 infected in African green monkey Vero cells assessed as reduction in viral replication at 10 uM after 4 days by qRT-PCR analysis relative to control; assay type: functional; settings: 96 h
dengue virus type 2 [23] = assay: Antiviral activity against DENV2 infected in African green monkey Vero cells assessed as reduction in viral replication at 10 uM after 4 days by qRT-PCR analysis relative to control; assay type: functional; settings: 96 h
dengue virus type 4 [24] = assay: Antiviral activity against DENV4 infected in African green monkey Vero cells assessed as reduction in viral replication at 10 uM after 4 days by qRT-PCR analysis relative to control; assay type: functional; settings: 96 h
dengue virus type 3 [25] = assay: Antiviral activity against DENV3 infected in African green monkey Vero cells assessed as reduction in viral replication at 10 uM after 4 days by qRT-PCR analysis relative to control; assay type: functional; settings: 96 h
Nonstructural protein 5 [26] = molecular target: T1, Nonstructural protein 5; assay: Inhibition of dengue virus NS5 RNA dependent RNA polymerase

COc1cc(/C(C#N)=C/c2cc3ccccc3[nH]2)cc(OC)c1OC
EC50 (dengue virus type 2 [1]): 8.12 µM

O=c1c2cc(O)c(O)cc2oc2cc(O)c([C@@H]3O[C@H](CO)[C@@H](O)[C@H](O)[C@H]3O/C=C/c3ccccc3)c(O)c12
EC50 (dengue virus type 2 [2]): 3.5 µg/mL (≈ 6.67 µM)

CC[C@H]1C[C@H]2C[N@]3CCc4c([nH]c5ccc(OC)cc45)[C@](C(=O)OC)(C2)[C@H]13
EC50 (dengue virus type 2 [3]): 2.6 to 10.2 µM

CC(C)CC(=O)c1c(O)c2c(c3c(-c4ccccc4)cc(=O)oc13)OC(C)(C)C=C2 [ISOMAMMEIGIN]
EC50 (dengue virus type 2 [3]): 2.6 to 10.2 µM

OCc1cc(C(O)CNCCCCCCOCCCCc2ccccc2)ccc1O (stereo not drawn) [SALMETEROL]
IC50 (dengue virus type 2 [4]): 0.67 µM

Cc1c(O)cccc1C(=O)N[C@@H](CSc1ccccc1)[C@H](O)CN1C[C@H]2CCCC[C@H]2C[C@H]1C(=O)NC(C)(C)C [NELFINAVIR]
IC50 (dengue virus type 2 [3]): 3.5 µM

Cc1cnc(NC(=O)c2cc(S(=O)(=O)N(C)C)ccc2N2CCCC2)s1
EC50 (dengue virus type 2 [5]): 0.85 µM

CC1(C)O[C@H]1[C@H]1C[C@@H]([C@H]2CC[C@]3(C)C4=CC[C@H]5C(C)(C)C(=O)CC[C@]5(C)[C@H]4CC[C@@]23C)[C@H](O)O1
EC50 (dengue virus type 2 [6]): 12 µM

CC1=C(Nc2c(C)cc(O)cc2O)C(=O)C=c2oc3c(c21)C(C)=C(Nc1c(C)cc(O)cc1O)C(=O)C=3
IC50 [7]: 28 to 32 µM
IC50 (Nonstructural protein 5 [8]): 2.3 to 21 µM
IC50 [9]: 28 to 32 µM
IC50 (Nonstructural protein 5 [10]): 2.3 to 21 µM

C=C1CC/C=C(\C)CC[C@@H]2[C@@H]1CC2(C)C [BETA-CARYOPHYLLENE]
IC50 (dengue virus type 2 [3]): 22 µM

CC[C@](C)(O)CCCCC[C@H]1C=CC(=O)O1
EC50 (Dengue virus): 11.2 to 21.2 µM

COc1cc(/C(C#N)=C/c2cc3ccccc3s2)cc(OC)c1OC
EC50 (dengue virus type 2 [1]): 7.22 µM

C#Cc1cccc(Nc2ncnc3cc(OCCOC)c(OCCOC)cc23)c1 [ERLOTINIB]
EC50 (dengue virus type 2 [11]): 4.07 µM

O=C(Nc1cccs1)c1ccccc1Sc1ccc([N+](=O)[O-])cc1
IC50 (Genome polyprotein [12]): 98 µM
EC50 (dengue virus type 1 [13]): 3.5 µM

O[C@H]1[C@H]2c3cc4c(cc3CN3CCC(=C[C@@H]1O)[C@H]23)OCO4 [LYCORINE]
EC50 (Dengue virus): 0.4 to 1.8 µM

CCCc1cc(=O)oc2c(C(=O)CC(C)C)c(O)c(CC=C(C)C)c(O)c12
EC50 (dengue virus type 2 [3]): 2.6 to 10.2 µM

CCc1ccc(NS(=O)(=O)c2ccc(N3C(=O)c4ccccc4C3=O)cc2)cc1
IC50 (Genome polyprotein [14]): 48.2 µM

CC[C@@H](c1cc(OC)c(OC)cc1OC)[C@H](C)[C@@H](/C(C)=C/c1cc(OC)c(OC)cc1OC)c1cc(OC)c(OC)cc1OC
EC50 (Dengue virus): 3.9 µM

O=c1c2cc(O)c(O)cc2oc2cc(O)c([C@@H]3O[C@H](CO)[C@@H](O)[C@H](O)[C@H]3O/C=C/c3ccc(O)c(O)c3)c(O)c12
EC50 (dengue virus type 2 [2]): 4.1 µg/mL (≈ 7.37 µM)

CCN(CC)CCCC(C)Nc1c2ccc(Cl)cc2nc2ccc(OC)cc12 (stereo not drawn) [QUINACRINE]
EC50 (dengue virus type 2 [15]): 5.3 µM

CC(C)C[C@@H]1NC(=O)[C@@H]2CCCN2C1=O
EC50 (Dengue virus): 11.2 to 21.2 µM

CCCCC1C(C(=O)N(C)OC)C(c2ccccc2)CCN1C(=O)OC(C)(C)C (stereo not drawn)
EC50 (dengue virus type 2 [3]): 2.4 µM
INH [16]: 257 µM

O=C(N[C@@H](Cc1ccc(O)cc1)C(=O)O)c1cc(-c2ccccc2)c(=O)n2c1sc1ccc(OC3CCCCC3)cc12
IC50 (dengue virus type 4 [17]): 6.8 to 15 µM
IC50 (dengue virus type 3 [18]): 6.8 to 15 µM
IC50 (Nonstructural protein 5 [19]): 1.5 µM
IC50 (dengue virus type 1 [20]): 6.8 to 15 µM
IC50 (dengue virus type 2 [21]): 6.8 to 15 µM

N#C/C(=C\c1ccc(-c2ccc(C(=O)O)cc2)s1)c1nc2cc(Cl)ccc2[nH]1
inhibition at 10 µM (dengue virus type 1 [22]): 50 to 82%
inhibition at 10 µM (dengue virus type 2 [23]): 50 to 82%
inhibition at 10 µM (dengue virus type 4 [24]): 50 to 82%
inhibition at 10 µM (dengue virus type 3 [25]): 50 to 82%

C=C(C)[C@@H]1CC[C@]2(C(=O)O)CC[C@]3(C)[C@H](CC[C@@H]4[C@@]5(C)CC[C@H](O)C(C)(C)[C@@H]5CC[C@]43C)[C@@H]12 [BETULINIC ACID]
IC50 (Nonstructural protein 5 [26]): 1.7 to 2.1 µM

CC(=O)O[C@H]1[C@H]2c3cc4c(cc3CN3CCC(=C[C@@H]1O)[C@H]23)OCO4
EC50 (Dengue virus): 0.4 to 1.8 µM
